Experiments:
[1] = tested on: UMUC3, RT4, A2780, OVCAR8 and A549 cancer cell lines; assay: Transepithelial electric resistance (TER) in other cancer cell lines; type: cell-based, human
Method: Cells were plated on Transwell filters (0.4 μm pore size) and grown to confluency in complete medium (RPMI1640 containing 10% fetal bovine serum, 20 mM HEPES and antibiotics). TER of the cultures (in duplicate wells) was measured at several time intervals with EVOM volt-ohm meter as previously described (Shah et al, 2009). The readings were corrected for blank (TER values from the filter in bathing medium). The integrity and cell density of monolayers were carefully monitored.
Next, whether CTR destabilizes tight junctions and increases invasion in these cancers was tested by examining the effect of CT on transepithelial electric resistance (TER), paracellular permeability (PCP) and invasion in cancer cell lines derived from bladder cancer (UMUC3 and RT4), ovarian cancer (A2780 and OVCAR8), and lung cancer (A549). Prostate cancer cell line PC-3CTR was used a reference line. […] This was further confirmed by the actions of CT on PCP (FIG. 26A) and cell invasion (FIG. 26B). […] The role of CT-CTR axis is to destabilize junction complexes and increase invasion in cancers as diverse as prostate, bladder, lung and ovarian cancers.

PC-3CTRwt cells = assay: Cell adhesion on culture dishes; type: cell-based; conditions: 50 nM CT, 1 hour
Method: Confluent cultures of PC-31-CTR cells were tested for cell adhesion after treatment with diluent (C), CT (50 nM), mPKI (myristoylated PKA inhibitory peptide (100 nM) or mPKI+CT. The number of adherent cells was determined by absorbance after 1 hour and are shown in the right graph.
To understand the significance of CT-induced, PKA-dependent disassembly of TJs in PC cell adhesion and invasion, the action of CT was examined on TER, PCP, cell adhesion and invasion in PC-3CTRwt cells in the presence/absence of mPKI. […] Similarly, mPKI abrogated the actions of CT on PCP and invasion (FIGS. 20B and 20C respectively). Next, the adhesion of PC-3CTRwt cells was examined on culture dishes.

[2] = tested on: LNCaP, PC-3M and DU-145 cell lines; assay: Paracellular permeability (PCP), TRITC-dextran diffusion; type: cell-based; conditions: 50 nM CT
Method: For PCP measurements, cells were grown to confluence on Transwell filters. Tetra methyl rhodamine-dextran (1 mg/ml, ˜4 kDa, Sigma) was added to the upper chamber. Fluorescence of the lower chamber medium was measured in Modulus Microplate Reader (Turner Biosystems) at various time intervals.
Whether CT produces similar effects in LNCaP, PC-3M and DU-145 cell lines, which endogenously express CTR, was examined as shown in FIG. 1A. FIGS. 9A-9B depict the effect of CT on tight junction (TJ) disruption as measured using TER and PCP in the three prostate cancer cell lines—LNCaP, PC-3M, and DU-145. Cells were serum-starved for 4 hours, then treated with and without 50 nM CT, before measuring TER as described above. In FIG. 9B, cells were treated with and without 50 nM CT, and PCP determined by diffusion of ˜4 kDa TRITC-conjugated dextran from the upper to the lower chamber in one hour. The results are expressed as μg/ml/hour of TRITC-Dextran diffused ±SEM (n=6; *p<0.05 (−CT v +CT, One way ANOVA and Newman-Keul's test)). FIG. 9C depicts effects of CT on cell invasion in the same three cell lines—PC-3M, LNCaP, and DU145. Cells were added to upper insert of invasion chambers with or without 50 nM CT, and cells that passed through the Matrigel™ barrier were counted after 48 h. The results are expressed as mean number of invaded cells per 400× field ±SEM (n=6; *p<0.05).

CTR-ZO-1 interaction = target: T1, CTR-ZO-1 interaction (Homo sapiens, UniProt P30988); assay: In situ proximity ligation assay (PLA); type: cell-based; conditions: PC-3CTRwt cells
T1 construct: PCR generated full length CTRwt and CTRΔESS cDNAs were cloned directionally into pcDNA3.1 mammalian expression vector; FLAG (N); expressed in transfected cells; host or cells: PC-31 / PC-3 cells stably expressing FLAG-CTRwt; ZO-1 is the cells' own
T1 sequence (P30988 25-474): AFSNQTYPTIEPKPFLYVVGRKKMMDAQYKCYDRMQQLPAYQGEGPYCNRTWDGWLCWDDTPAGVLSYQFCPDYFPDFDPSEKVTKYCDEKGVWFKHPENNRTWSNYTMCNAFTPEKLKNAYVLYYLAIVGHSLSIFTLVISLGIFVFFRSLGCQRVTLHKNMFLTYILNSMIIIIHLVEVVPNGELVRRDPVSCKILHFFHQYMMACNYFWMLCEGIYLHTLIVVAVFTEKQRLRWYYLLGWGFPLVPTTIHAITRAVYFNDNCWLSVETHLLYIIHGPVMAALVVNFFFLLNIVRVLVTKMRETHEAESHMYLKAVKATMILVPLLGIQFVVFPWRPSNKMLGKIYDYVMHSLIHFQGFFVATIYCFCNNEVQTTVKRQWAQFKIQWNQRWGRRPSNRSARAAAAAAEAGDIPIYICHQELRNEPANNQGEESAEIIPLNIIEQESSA
Method: Fixed PC cells or tissues were immunolabeled with primary antibodies (anti-rabbit ZO-1 serum and anti-goat CTR serum) for overnight at 4° C. The secondary antibodies with attached PLA probes were supplied in the Duolink™ kit (Olink Bioscience, Uppsala, Sweden). CTR-ZO-1 interaction was observed by confocal microscopy at 400×. A red fluorescent dot indicated the two proteins are within 35 nm distance. The number of dots per cell was determined by Blobfinder™ image analysis software (Allalou et al., 2009).
Next, CTR-ZO-1 interaction was examined in PC-3CTRwt cells. […] Each dot represents an interaction between activated CTR and ZO-1, detected by in situ PLA™ using the Duolink® kit. Nuclei were stained with DAPI. The graph presents quantitative data of CTR-ZO-1 interactions in three separate but identical experiments (mean±SEM; n=6, p<0.001, paired t-test). […] Next, this phenomenon was examined in LNCaP cells, which are androgen-responsive and endogenously express CTR but not CT (Karpova et al., 2006). […] Finally, non-metastatic and metastatic PC specimens were examined in a similar experiment.
Since CTR directly interacts with ZO-1 through PDZ domain, whether CT-induced endocytosis of ZO-1 is caused by CTR-mediated events prior to or subsequent to CTR-ZO-1 interaction was tested. To determine the time course of CTR-ZO-1 interaction, in situ PLA assay was used (FIG. 15D). […] Representative micrographs are shown of CTR-ZO-1 interactions in PC-3CTRwt cells at various time periods (0-300 seconds) after CT stimulus. Each highlighted dot represents an interaction between activated CTR and ZO-1, detected by in situ PLA™ using the Duolink® kit. Nuclei were stained with DAPI. The line graph presents the mean±SEM of dots at each time point (n=6). […] Considering that ZO-1 endocytosis was observed after 1 minute of CT stimulus, it is conceivable that CTR-mediated events subsequent to CTR-ZO-1 interaction may be associated with TJ protein endocytosis.

Substance: calcitonin [CT]
- response to CT ([1]; aggressive cell lines): responded extremely well
- response to CT ([1]; well-differentiated lines RT4 and OVCAR8): responded poorly
- TER ([1]; with CT, all these cell lines): decreased TER
- adhesion of the cells to plastic matrix (PC-3CTRwt cells): remarkable decline
- PCP [2]: increased PCP
- time of peak CTR-ZO-1 interaction after CT stimulus (CTR-ZO-1 interaction): 30 s
- CTR-ZO-1 interactions (PLA dots) (CTR-ZO-1 interaction; 50 nM CT, 30 seconds): eighty-fold increase
